Experiments:
[1] = tested on: endothelium of human small PAs; test: Baseline endothelial Ca2+ signaling in freshly isolated small PAs from human lungs exposed to HR; assay type: cell-based; settings: ARC; human small PAs (~50 μm)
Experimental: Ca^2+ imaging in Pas: Ca^2+ imaging in small Pas was performed as previously described.8 Fourth-order, small (~50 μm diameter) Pas (see FIG. 1B) were dissected from left lungs in cold HEPES-buffered physiological salt solution (HEPES-PSS; 10 mM HEPES, 134 mM NaCl, 6 mM KCl, 1 mM MgCl2 hexahydrate, 2 mM CaCl2) dihydrate, and 7 mM dextrose; pH adjusted to 7.4 using 1 M NaOH). Ca^2+ imaging studies were performed in en face preparations of small Pas incubated with Fluo-4 AM (10 μM) and pluronic acid (0.04%) at 37° C. for 10 minutes. For studies after sham or lung IR surgery, small Pas were immediately dissected out after the indicated reperfusion time and incubated en face with Fluo-4 AM. For acute hypoxia-reoxygenation (HR) exposure, small Pas were washed with PBS, after which serum free/glucose-free endothelial cell medium was added. Small Pas were placed in a humidified, sealed hypoxia chamber (Billups-Rothenberg, San Diego, CA), which was subsequently flushed with 95% nitrogen/5% CO2 for 20 minutes and placed in a 37° C. incubator to initiate hypoxia. After 1 hour of hypoxia, the chamber was opened to terminate hypoxia. […] Fluo-4 was excited using a 488-nm solid-state laser, and emitted fluorescence was captured using a 525/36-nm band-pass filter. […] Baseline Ca^2+ signaling activity was recorded in the absence of CPA. […]

[2] = rat, in vivo; cited from earlier work
[3] = tested on: murine pulmonary microvascular endothelial cells; settings: murine PMVECs, acute hypoxia-reoxygenation; cited from earlier work

Structure (SMILES) | HR-induced increase in endothelial Ca2+ signaling [1] | plasma half-life (t1/2) [2] [h] | HR-induced secretion of CXCL1/KC [3]
Cc1ccc2c(c1)C=Cc1cc(C)ccc1C2c1cn(Cc2ccc(C(=O)Nc3nn[nH]n3)o2)c(=O)[nH]c1=S [ARC, AR-C 118925XX] | inhibited |  | 
O=C(NC1(c2ccccc2)CC1)c1c(CN2CCC(N3CCCCC3)CC2)c(-c2cccc(C(F)(F)F)c2)nc2cc(Br)ccc12 [GSK219, GSK2193874] |  | 10 | attenuated

— US20260284082A1, “TARGETING THE PANX1-P2Y2R-TRPV4 PATHWAY TO TREAT LUNG ISCHEMIA-REPERFUSION INJURY” (UNIVERSITY OF VIRGINIA PATENT FOUNDATION, priority 2023, published 2026)
